16 compounds from patent publication US11472791B2 (Incyte Corporation, priority 2019, dated 2022) can be followed below.

For one experiment, the target named is human JAK1 (Homo sapiens, UniProt P23458). The experiment can be described thus: JAK inhibitory activity assay (JAK1). The class given is biochemical. The settings on record: 1 mM ATP. The method, then:
(§1) Compounds herein were tested for inhibitory activity of JAK targets according to the following in vitro assay described in Park et al., Analytical Biochemistry 1999, 269, 94-104. The catalytic domains of human JAK1 (a.a. 837-1142), Jak2 (a.a. 828-1132) and Jak3 (a.a. 781-1124) with an N-terminal His tag were expressed using baculovirus in insect cells and purified. The catalytic activity of JAK1 and JAK2 was assayed by measuring the phosphorylation of a biotinylated peptide. The phosphorylated peptide was detected by homogenous time resolved fluorescence (HTRF). Each enzyme reaction was carried out with or without test compound (11-point dilution), JAK enzyme, 500 nM peptide, adenosine triphosphate (ATP; 1 mM), and 2.0% dimethyl sulfoxide (DMSO) in assay buffer (50 mM Tris (pH 7.8) buffer, 100 mM NaCl, 5 mM DTT, and 0.1 mg/mL (0.01%) BSA). The peptide substrate (Biotin-[…]) was custom synthesized by Biosource International. Reactions were carried out at room temperature for 1 hour and then stopped with 10 μL 45 mM EDTA, 200 nM SA-APC, 4 nM Eu-Py20 in assay buffer (Perkin Elmer, Boston, Mass.). After incubation for 30 minutes at room temperature, the HTRF signal was measured on a PheraStar plate reader.

The target of another experiment is CDK2/Cyclin E1 (Homo sapiens (Human), UniProt P24941). The experiment in a line: CDK2/Cyclin E1 HTRF enzyme activity assay. The class given is biochemical. The settings on record: 1 mM ATP. The method, then:
Assays are conducted in white 384-well polystyrene plates in a final reaction volume of 8 μL. […] HTRF signals are read after 1 hour at room temperature on a PHERAstar FS plate reader (BMG Labtech). Data is analyzed with IDBS XLFit and GraphPad Prism 5.0 software using a three or four parameter dose response curve to determine IC50 for each compound.
In general terms: In TR-FRET formats the signal depends on donor and acceptor labels being close together.

The target in a further experiment is JAK2 (Homo sapiens (Human), UniProt O60674). The experiment can be described thus: JAK inhibitory activity assay (JAK2). The experiment is classed as biochemical. The settings on record: 1 mM ATP. The method, then:
as §1

In another experiment the test system is COV318 cells. The experiment can be described thus: Cell cycle analysis by FACS after p16 knockdown. The class given is cell-based, human. The settings on record: 100 nM, 16 hours. The method, then: To confirm the role of p16 in CDK2-sensitivity of CCNE1-amplified cells, COV318 cells were treated with control or p16-specific siRNA.
Bulk DNA was stained with DAPI. Compound-treated and DMSO treated control cells were acquired with CytoFlex (Beckman Coulter) and were analyzed using the FlowJo software. For cell cycle analysis of cells with siRNA knockdown, 72 hours after siRNA transfection, cells exposed to 10 μM EdU for 3 hours before detection of Click-iT Alexa Fluor® 647 azide kit.

Experiment [1] has as its system Rb phosphorylated on serine 780 in CCNE1 amplified COV318 cells. The experiment in a line: CDK2 pRb (S780) HTRF cellular assay. The class given is cell-based. The settings on record: Homo sapiens, read-out: IC50 in p-RB S780 HTRF cellular assay.

Structures are written as SMILES.

JAK2, sequence (O60674 828-1132): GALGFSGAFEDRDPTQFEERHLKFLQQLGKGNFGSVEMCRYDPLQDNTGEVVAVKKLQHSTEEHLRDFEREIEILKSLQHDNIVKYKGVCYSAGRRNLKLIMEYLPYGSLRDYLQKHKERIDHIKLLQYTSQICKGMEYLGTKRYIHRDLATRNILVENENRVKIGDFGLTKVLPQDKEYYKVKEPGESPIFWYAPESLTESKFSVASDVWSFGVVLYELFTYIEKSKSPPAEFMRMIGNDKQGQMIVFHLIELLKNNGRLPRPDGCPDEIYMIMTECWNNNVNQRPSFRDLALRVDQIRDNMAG

As usually defined, the IC50 is the concentration needed to halve the response being measured. Take `CN1CCC(n2cc(-c3nc(NC4CCN(S(C)(=O)=O)CC4)ncc3C(F)(F)F)cn2)CC1` [Example 11, 4-(1-(1-Methylpiperidin-4-yl)-1H-pyrazol-4-yl)-N-(1-(methylsulfonyl)piperidin-4-yl)-5-(trifluoromethyl)pyrimidin-2-amine]: the results for the IC50 on human JAK1, against CDK2/Cyclin E1 and against JAK2 were ≥ 10 µM, < 0.05 µM and ≥ 10 µM, respectively.

For the compound `CN1CCN(Cc2ccc(-n3cc(-c4nc(NC5CCN(S(C)(=O)=O)CC5)ncc4C#N)cn3)c(Cl)c2)CC1` [Example 99, 4-(1-(2-Chloro-4-((4-methylpiperazin-1-yl)methyl)phenyl)-1H-pyrazol-4-yl)-2-((1-(methylsulfonyl)piperidin-4-yl)amino)pyrimidine-5-carbonitrile], the half-maximal inhibitory concentration (IC50) against human JAK1 is ≥ 10 µM; on CDK2/Cyclin E1 it was < 0.05 µM; at JAK2, ≥ 10 µM.

For the compound `CC(C)(C(N)=O)n1cc(-c2nc(NC3CCN(S(=O)(=O)c4ccccn4)CC3)ncc2C(F)(F)F)cn1` [Example 96, 2-Methyl-2-(4-(2-((1-(pyridin-2-ylsulfonyl)piperidin-4-yl)amino)-5-(trifluoromethyl)pyrimidin-4-yl)-1H-pyrazol-1-yl)propanamide], the concentration for half-maximal inhibition (IC50) was ≥ 10 µM at human JAK1, < 0.05 µM against CDK2/Cyclin E1 and ≥ 10 µM at JAK2.

`CC(C)(O)Cn1cc(-c2nc(NC3CCN(S(=O)(=O)C4CC4)CC3)ncc2C(F)(F)F)cn1` [Example 51, 1-(4-(2-((1-(Cyclopropylsulfonyl)piperidin-4-yl)amino)-5-(trifluoromethyl)pyrimidin-4-yl)-1H-pyrazol-1-yl)-2-methylpropan-2-ol]: the figures for the IC50 on human JAK1, on CDK2/Cyclin E1 and on JAK2 were ≥ 10 µM, < 0.05 µM and ≥ 10 µM, respectively.

As to `CO[C@H]1CC[C@H](n2cc(-c3nc(NC4CCN(S(=O)(=O)c5cn(C)cn5)CC4)ncc3C(F)(F)F)cn2)CC1` [Example 42, 4-(1-((1r,4r)-4-Methoxycyclohexyl)-1H-pyrazol-4-yl)-N-(1-((1-methyl-1H-imidazol-4-yl)sulfonyl)piperidin-4-yl)-5-(trifluoromethyl)pyrimidin-2-amine], the IC50 was ≥ 5 µM against human JAK1, < 0.05 µM against CDK2/Cyclin E1 and ≥ 5 µM against JAK2.

In the case of `CNCc1ccc(-n2cc(-c3nc(NC4CCN(S(C)(=O)=O)CC4)ncc3C(F)(F)F)cn2)c(C)c1` [Example 41, 4-(1-(2-Methyl-4-((methylamino)methyl)phenyl)-1H-pyrazol-4-yl)-N-(1-(methylsulfonyl)piperidin-4-yl)-5-(trifluoromethyl)pyrimidin-2-amine], the values for the IC50 against human JAK1, against CDK2/Cyclin E1 and at JAK2 were ≥ 10 µM, < 0.05 µM and ≥ 10 µM, respectively.

Consider `CS(=O)(=O)N1CCC(Nc2ncc(C(F)(F)F)c(-c3cnn(CC(F)(F)F)c3)n2)CC1` [Example 10, N-(1-(Methylsulfonyl)piperidin-4-yl)-4-(1-(2,2,2-trifluoroethyl)-1H-pyrazol-4-yl)-5-(trifluoromethyl)pyrimidin-2-amine], for which the values for the half-inhibitory concentration (IC50) at human JAK1, at CDK2/Cyclin E1 and against JAK2 were ≥ 10 µM, < 0.05 µM and ≥ 10 µM, respectively.

`C[C@]1(N)C[C@@H](n2cc(-c3nc(NC4CCN(S(=O)(=O)C5CC5)CC4)ncc3C(F)(F)F)cn2)C1` [Example 44, 4-(1-((1s,3s)-3-Amino-3-methylcyclobutyl)-1H-pyrazol-4-yl)-N-(1-(cyclopropylsulfonyl)piperidin-4-yl)-5-(trifluoromethyl)pyrimidin-2-amine]: the IC50 is ≥ 10 µM against human JAK1, < 0.05 µM at CDK2/Cyclin E1 and ≥ 10 µM on JAK2.

`C[C@@]1(O)CCC[C@H]1n1c(=O)ccc2cnc(NC3CCN(S(C)(=O)=O)CC3)nc21` [Compound A, 8-((1R,2R)-2-hydroxy-2-methylcyclopentyl)-2-((1-(methylsulfonyl)piperidin-4-yl)amino)pyrido[2,3-d]pyrimidin-7(8H)-one]: the “percentage of S phase cells” value was “significantly decreased” with COV318 cells (control siRNA-treated COV318 cells) and “not significantly decreased” in the experiment with COV318 cells (p16 knocked down COV318 cells, compared to DMSO). In addition, the half-maximal inhibitory concentration (IC50) in experiment [1] amounted to 0.037 µM.

As for `CC(C)(O)Cn1cc(-c2nc(NC3CCN(S(=O)(=O)C4CC4)CC3)ncc2C#N)cn1` [Example 54, 2-((1-(Cyclopropylsulfonyl)piperidin-4-yl)amino)-4-(1-(2-hydroxy-2-methylpropyl)-1H-pyrazol-4-yl)pyrimidine-5-carbonitrile], the results for the IC50 against human JAK1, against CDK2/Cyclin E1 and against JAK2 were ≥ 10 µM, < 0.05 µM and ≥ 10 µM, respectively.

Regarding `Cn1cc(S(=O)(=O)N2CCC(Nc3ncc(C(F)(F)F)c(-c4cnn(CC(F)(F)F)c4)n3)CC2)cn1` [Example 1, N-(1-((1-Methyl-1H-pyrazol-4-yl)sulfonyl)piperidin-4-yl)-4-(1-(2,2,2-trifluoroethyl)-1H-pyrazol-4-yl)-5-(trifluoromethyl)pyrimidin-2-amine], the half-maximal inhibitory concentration (IC50) is ≥ 10 µM against human JAK1, < 0.05 µM at CDK2/Cyclin E1 and ≥ 10 µM at JAK2.

On to `O=S(=O)(C1CCOCC1)N1CCC(Nc2ncc(C(F)(F)F)c(-c3cnn(C4CCOCC4)c3)n2)CC1` [Example 6, 4-(1-(Tetrahydro-2H-pyran-4-yl)-1H-pyrazol-4-yl)-N-(1-((tetrahydro-2H-pyran-4-yl)sulfonyl)piperidin-4-yl)-5-(trifluoromethyl)pyrimidin-2-amine], for which the IC50 against CDK2/Cyclin E1 is < 0.05 µM.

Take `[2H]C([2H])([2H])NCc1ccc(-n2cc(-c3nc(NC4CCN(S(C)(=O)=O)CC4)ncc3C(F)(F)F)cn2)c(C)c1` [Example 128, 4-(1-(2-Methyl-4-(((methyl-d3)amino)methyl)phenyl)-1H-pyrazol-4-yl)-N-(1-(methylsulfonyl)piperidin-4-yl)-5-(trifluoromethyl)pyrimidin-2-amine]: on CDK2/Cyclin E1, the IC50 was < 0.05 µM.

Turning to `CC(C)(NCc1ccc(-n2cc(-c3nc(NC4CCN(S(C)(=O)=O)CC4)ncc3C#N)cn2)c(Cl)c1)C(N)=O` [Example 160, 2-((3-Chloro-4-(4-(5-cyano-2-((1-(methylsulfonyl)piperidin-4-yl)amino)pyrimidin-4-yl)-1H-pyrazol-1-yl)benzyl)amino)-2-methylpropanamide], the concentration for half-maximal inhibition (IC50) on CDK2/Cyclin E1 is < 0.05 µM.

For `CN1CCN(CCCS(=O)(=O)N2CCC(Nc3ncc(C(F)(F)F)c(-c4cnn(CC(C)(C)O)c4)n3)CC2)CC1` [Example 68, 2-Methyl-1-(4-(2-((1-((3-(4-methylpiperazin-1-yl)propyl)sulfonyl)piperidin-4-yl)amino)-5-(trifluoromethyl)pyrimidin-4-yl)-1H-pyrazol-1-yl)propan-2-ol], the concentration for half-maximal inhibition (IC50) at CDK2/Cyclin E1 was < 0.05 µM.

As for `COC(=O)N1CC(NCc2ccc(-n3cc(-c4nc(NC5CCN(S(C)(=O)=O)CC5)ncc4C#N)cn3)c(Cl)c2)C1` [Example 172, Methyl 3-((3-chloro-4-(4-(5-cyano-2-((1-(methylsulfonyl)piperidin-4-yl)amino)pyrimidin-4-yl)-1H-pyrazol-1-yl)benzyl)amino)azetidine-1-carboxylate], the IC50 against CDK2/Cyclin E1 is < 0.05 µM.
